Source: patent US20260125382A1, “COMPOUNDS FOR INHIBITING OR DEGRADING CDK2 AND/OR CDK9 AND MEDICINAL USE THEREOF” (KOREA RESEARCH INSTITUTE OF CHEMICAL TECHNOLOGY, priority 2022, published 2026)

What was measured:
CDK2 = molecular target: T1, CDK2 (Homo sapiens, UniProt P24941); assay: CDK protein degradation activity (Western blotting), CDK2; type: cell-based; details: MDA-MB-231 cells, 16 hours, Western blot
T1 construct: endogenous in cells; host or cells: MDA-MB-231
Summary of the method: (§1)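 Breast cancer line MDA-MB-231, 16 h compound treatment (100 nM–10 μM final, three doses). Immunoblot quantification of CDK2/CDK9 versus tubulin, normalized to DMSO control.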

CDK9 = molecular target: T2, CDK9 (Homo sapiens, UniProt P50750); assay: CDK protein degradation activity (Western blotting), CDK9; type: cell-based; details: MDA-MB-231 cells, 16 hours, Western blot
T2 construct: endogenous in cells; host or cells: MDA-MB-231
Summary of the method: as §1

T2 sequence (P50750 whole entry): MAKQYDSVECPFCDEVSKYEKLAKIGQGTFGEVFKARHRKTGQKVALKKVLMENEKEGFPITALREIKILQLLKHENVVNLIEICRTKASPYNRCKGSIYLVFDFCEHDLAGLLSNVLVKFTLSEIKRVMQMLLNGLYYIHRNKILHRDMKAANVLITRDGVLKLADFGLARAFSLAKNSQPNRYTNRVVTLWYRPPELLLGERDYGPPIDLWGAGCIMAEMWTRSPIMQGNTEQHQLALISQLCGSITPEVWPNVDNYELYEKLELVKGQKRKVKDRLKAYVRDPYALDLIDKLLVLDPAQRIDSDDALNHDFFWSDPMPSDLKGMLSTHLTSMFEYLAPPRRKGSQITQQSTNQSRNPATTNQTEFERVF

| SMILES | Enzyme degradation CDK2 (% remaining) @ 0.1 μM (CDK2) | Enzyme degradation CDK2 (% remaining) @ 1 μM (CDK2) | Enzyme degradation CDK2 (% remaining) @ 10 μM (CDK2) | Enzyme degradation CDK9 (% remaining) @ 0.1 μM (CDK9) | Enzyme degradation CDK9 (% remaining) @ 1 μM (CDK9) | Enzyme degradation CDK9 (% remaining) @ 10 μM (CDK9) |
| --- | --- | --- | --- | --- | --- | --- |
| O=C1CCC(N2C(=O)c3cc(F)c(N4CCC(C(=O)N5CCC(CN6CCC(CCNc7ncnc8c7ncn8[C@H]7C[C@@H](NC(=O)Cc8ccccc8)C7)CC6)CC5)CC4)cc3C2=O)C(=O)N1 (stereo partly drawn) [Compound 461, N-((1s,3s)-3-(6-((2-(1-((1-(1-(2-(2,6-dioxopiperidin-3-yl)-6-fluoro-1,3-dioxoisoindolin-5-yl)piperidin-4-carbonyl)piperidin-4-yl)methyl)piperidin-4-yl)ethyl)amino)-9H-purin-9-yl)cyclobutyl)-2-phenylacetamide] | 70% | 40% | 40% | 30% | 0% | 0% |
| O=C1CCC(N2C(=O)c3cc(F)c(N4CCC(C(=O)N5CCC(CCN6CCN(c7ccc(Nc8ncnc9c8ncn9[C@H]8C[C@@H](NC(=O)c9c(Cl)cccc9Cl)C8)cc7)CC6)CC5)CC4)cc3C2=O)C(=O)N1 (stereo partly drawn) [Compound 463, 2,6-dichloro-N-((1s,3s)-3-(6-((4-(4-(2-(1-(1-(2-(2,6-dioxopiperidin-3-yl)-6-fluoro-1,3-dioxoisoindolin-5-yl)piperidin-4-carbonyl)piperidin-4-yl)ethyl)piperazin-1-yl)phenyl)amino)-9H-purin-9-yl)cyclobutyl)benzamide] | 30/30/30% | 30/30/30% | 30/30/30% | 0/0/0% | 0/0/0% | 0/0/0% |
| O=C1CC[C@H](N2C(=O)c3ccc(N4CC(C(=O)N5CCC(CN6CCN(c7ccc(Nc8ncnc9c8ncn9C8CC(NC(=O)c9cccc(F)n9)C8)cc7)CC6)CC5)C4)cc3C2=O)C(=O)N1 (stereo partly drawn) [Compound 466, N-((1s,3s)-3-(6-((4-(4-((1-(1-(2-(2,6-dioxopiperidin-3-yl)-1,3-dioxoisoindolin-5-yl)azetidin-3-carbonyl)piperidin-4-yl)methyl)piperazin-1-yl)phenyl)amino)-9H-purin-9-yl)cyclobutyl)-6-fluoropicolinamide] | 30% | 20% | 20% | 0/0/0% | 0/0/0% | 0/0/0% |
| O=C1CC[C@H](N2C(=O)c3ccc(N4CCC(C(=O)N5CCC(CN6CCN(c7ccc(Nc8ncnc9c8ncn9C8CC(NC(=O)c9cccc(F)n9)C8)cc7)CC6)CC5)CC4)cc3C2=O)C(=O)N1 (stereo partly drawn) [Compound 467, N-((1s,3s)-3-(6-((4-(4-((1-(1-(2-(2,6-dioxopiperidin-3-yl)-1,3-dioxoisoindolin-5-yl)piperidin-4-carbonyl)piperidin-4-yl)methyl)piperazin-1-yl)phenyl)amino)-9H-purin-9-yl)cyclobutyl)-6-fluoropicolinamide] | 40% | 30% | 30% | 0/0/0% | 0/0/0% | 0/0/0% |
| O=C1CC[C@H](N2C(=O)c3cc(F)c(N4CCC(C(=O)N5CCC(CN6CCN(c7ccc(Nc8ncnc9c8ncn9C8CC(NC(=O)c9cccc(F)n9)C8)cc7)CC6)CC5)CC4)cc3C2=O)C(=O)N1 (stereo partly drawn) [Compound 468, N-((1s,3s)-3-(6-((4-(4-((1-(1-(2-(2,6-dioxopiperidin-3-yl)-6-fluoro-1,3-dioxoisoindolin-5-yl)piperidin-4-carbonyl)piperidin-4-yl)methyl)piperazin-1-yl)phenyl)amino)-9H-purin-9-yl)cyclobutyl)-6-fluoropicolinamide] | 50% | 40% | 40% | 0/0/0% | 0/0/0% | 0/0/0% |
| O=C1CC[C@H](N2C(=O)c3ccc(N4CC(C(=O)N5CCC(CN6CCN(c7ccc(Nc8ncnc9c8ncn9[C@H]8C[C@@H](NC(=O)c9cccc(C(F)(F)F)n9)C8)cc7)CC6)CC5)C4)cc3C2=O)C(=O)N1 [Compound 469, N-((1s,3s)-3-(6-((4-(4-((1-(1-(2-(2,6-dioxopiperidin-3-yl)-1,3-dioxoisoindolin-5-yl)azetidin-3-carbonyl)piperidin-4-yl)methyl)piperazin-1-yl)phenyl)amino)-9H-purin-9-yl)cyclobutyl)-6-(trifluoromethyl)picolinamide] | 40/40/40% | 40/40/40% | 40/40/40% | 0/0/0% | 0/0/0% | 0/0/0% |
| O=C1CCC(N2C(=O)c3ccc(N4CCC(C(=O)N5CCC(CN6CCN(c7ccc(Nc8ncnc9c8ncn9[C@H]8C[C@@H](NC(=O)c9cccc(C(F)(F)F)n9)C8)cc7)CC6)CC5)CC4)cc3C2=O)C(=O)N1 (stereo partly drawn) [Compound 470, N-((1s,3s)-3-(6-((4-(4-((1-(1-(2-(2,6-dioxopiperidin-3-yl)-1,3-dioxoisoindolin-5-yl)piperidin-4-carbonyl)piperidin-4-yl)methyl)piperazin-1-yl)phenyl)amino)-9H-purin-9-yl)cyclobutyl)-6-(trifluoromethyl)picolinamide] | 30/30/30% | 30/30/30% | 30/30/30% | 0/0/0% | 0/0/0% | 0/0/0% |

Further lines, results first:

| Enzyme degradation CDK2 (% remaining) @ 0.1 μM (CDK2) | Enzyme degradation CDK2 (% remaining) @ 1 μM (CDK2) | Enzyme degradation CDK2 (% remaining) @ 10 μM (CDK2) | Enzyme degradation CDK9 (% remaining) @ 0.1 μM (CDK9) | Enzyme degradation CDK9 (% remaining) @ 1 μM (CDK9) | Enzyme degradation CDK9 (% remaining) @ 10 μM (CDK9) | SMILES |
| --- | --- | --- | --- | --- | --- | --- |
| 40/40/40% | 40/40/40% | 40/40/40% | 0/0/0% | 0/0/0% | 0/0/0% | O=C1CC[C@H](N2C(=O)c3cc(F)c(N4CCC(C(=O)N5CCC6(CC5)CC(N5CCN(c7ccc(Nc8ncnc9c8ncn9C8CC(NC(=O)Cc9ccccc9)C8)cc7)CC5)C6)CC4)cc3C2=O)C(=O)N1 (stereo partly drawn) [Compound 460, N-((1s,3s)-3-(6-((4-(4-(7-(1-(2-(2,6-dioxopiperidin-3-yl)-6-fluoro-1,3-dioxoisoindolin-5-yl)piperidin-4-carbonyl)-7-azaspiro[3.5]nonan-2-yl)piperazin-1-yl)phenyl)amino)-9H-purin-9-yl)cyclobutyl)-2-phenylacetamide] |
| 30% | 20% | 20% | 0/0/0% | 0/0/0% | 0/0/0% | O=C1CC[C@H](N2C(=O)c3cc(F)c(N4CCC(C(=O)N5CCC(CN6CCN(c7ccc(Nc8ncnc9c8ncn9[C@H]8C[C@@H](NC(=O)c9c(Cl)cccc9Cl)C8)cc7)CC6)CC5)CC4)cc3C2=O)C(=O)N1 [Compound 462, 2,6-dichloro-N-((1s,3s)-3-(6-((4-(4-((1-(1-(2-(2,6-dioxopiperidin-3-yl)-6-fluoro-1,3-dioxoisoindolin-5-yl)piperidin-4-carbonyl)piperidin-4-yl)methyl)piperazin-1-yl)phenyl)amino)-9H-purin-9-yl)cyclobutyl)benzamide] |
| 40% | 30% | 30% | 0/0/0% | 0/0/0% | 0/0/0% | O=C1CC[C@H](N2C(=O)c3cc(F)c(N4CCC(C(=O)N5CCC6(CC5)CC(N5CCN(c7ccc(Nc8ncnc9c8ncn9C8CC(NC(=O)c9c(Cl)cccc9Cl)C8)cc7)CC5)C6)CC4)cc3C2=O)C(=O)N1 (stereo partly drawn) [Compound 464, 2,6-dichloro-N-((1s,3s)-3-(6-((4-(4-(7-(1-(2-(2,6-dioxopiperidin-3-yl)-6-fluoro-1,3-dioxoisoindolin-5-yl)piperidin-4-carbonyl)-7-azaspiro[3.5]nonan-2-yl)piperazin-1-yl)phenyl)amino)-9H-purin-9-yl)cyclobutyl)benzamide] |
| 50/50/50% | 50/50/50% | 50/50/50% | 0/0/0% | 0/0/0% | 0/0/0% | Cc1cccc(C(=O)N[C@H]2C[C@@H](n3cnc4c(Nc5ccc(N6CCN(C7CC8(CCN(C(=O)C9CCN(c%10cc%11c(cc%10F)C(=O)N([C@H]%10CCC(=O)NC%10=O)C%11=O)CC9)CC8)C7)CC6)cc5)ncnc43)C2)n1 [Compound 465, N-((1s,3s)-3-(6-((4-(4-(7-(1-(2-(2,6-dioxopiperidin-3-yl)-6-fluoro-1,3-dioxoisoindolin-5-yl)piperidin-4-carbonyl)-7-azaspiro[3.5]nonan-2-yl)piperazin-1-yl)phenyl)amino)-9H-purin-9-yl)cyclobutyl)-6-methylpicolinamide] |
